Common to all, as to assay: IC261 loss of cell viability, ovarian cancer cell panel
Type in all cases: cell-based

One test relates to SKOV3. Conditions: Homo sapiens, SK-OV-3. The procedure:
(§1) The effect of CSNK1ε on the cell viability of ovarian cancer lines was investigated in vitro. First, HFF (non-cancer primary cells) with control vector, RMG-1 (normal c-MYC expressing), CaOV3 (normal c-MYC expressing), HFF with cMYC induced (amplified c-MYC expressing), TOV112D (amplified c-MYC expressing), and COLO720E (amplified c-MYC expressing) were exposed to increasing concentrations of IC261. Cell viability was assessed as described above.
(§2) Similar assays were performed with an additional panel of ovarian cancer cells, including IGROV-1, PE01, DOV13, OAW42, TOV21G, and SKOV3. The log of the half maximal effective concentration (log IC50) was calculated to reflect half the concentration of IC261 required to results in complete loss of cell viability.

In a further test the test system is TOV21G. The following applies: Homo sapiens. The method, then: as §1, §2
Another test concerns DOV13. The following applies: Homo sapiens. The procedure:
as §1, §2

The subject of a further test is IGROV-1. Conditions: Homo sapiens. The method, then: as §1, §2
Another test has as its system OAW42. The following applies: Homo sapiens, OAW-42. The procedure:
as §1, §2

Another test relates to PE01. The following applies: Homo sapiens. The method, then:
as §1, §2

SMILES strings stand for the structures.

As for `COc1cc(OC)c(/C=C2/C(=O)Nc3ccccc32)c(OC)c1` [IC261], the IC50 in the test on SKOV3 is 4.63 µM; with TOV21G, 6.55 µM; with DOV13, 7.09 µM; in the test with IGROV-1, 585 µM; in the test on OAW42, 6.61 µM; in the test with PE01 it was 8.8 µM.

Source of the values: patent publication US10188630B2, “Methods for identifying and using inhibitors of casein kinase 1 epsilon isoform for inhibiting the growth and/or proliferation of MYC-driven tumor cells” (Fred Hutchinson Cancer Research Center, priority 2010, dated 2019).
